{"source": "ChEMBL document CHEMBL1156479", "about": "“Reversine increases the plasticity of lineage-committed mammalian cells” (Proc Natl Acad Sci U S A, 2007)", "key": {"[1]": {"target": "Dual specificity mitogen-activated protein kinase kinase 1 (Mus musculus, UniProt P31938)", "sequence (P31938 whole entry)": "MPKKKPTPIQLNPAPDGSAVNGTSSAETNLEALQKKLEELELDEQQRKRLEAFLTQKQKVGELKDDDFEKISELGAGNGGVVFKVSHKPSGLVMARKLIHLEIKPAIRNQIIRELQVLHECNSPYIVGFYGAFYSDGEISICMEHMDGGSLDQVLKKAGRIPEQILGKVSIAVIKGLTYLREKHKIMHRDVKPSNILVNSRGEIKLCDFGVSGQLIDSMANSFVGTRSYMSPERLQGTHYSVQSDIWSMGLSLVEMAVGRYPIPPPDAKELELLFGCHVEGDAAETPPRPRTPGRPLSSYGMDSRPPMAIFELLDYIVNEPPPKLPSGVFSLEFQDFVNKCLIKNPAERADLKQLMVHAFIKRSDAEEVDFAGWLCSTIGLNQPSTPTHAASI", "test": "Inhibition of MEK1 in mouse C2C12 by ERK2 phosphorylation assay"}, "[2]": {"test": "Inhibition of ATPase activity of myosin 2 in mouse C2C12 myoblast assessed as release of inorganic phosphates"}, "[3]": {"test_system": "C2C12", "test": "Inhibition of myotube formation in mouse C2C12 myoblasts at 20 nM", "details": "C2C12, read-out: INH"}}, "data": [{"smiles": "c1nc2c(NC3CCCCC3)nc(Nc3ccc(N4CCOCC4)cc3)nc2[nH]1", "note": "[REVERSINE]", "values": [{"measurement": "IC50", "setting": "[1]", "value": 8, "unit": "nM"}, {"measurement": "IC50", "setting": "[2]", "value": 10, "unit": "nM"}, {"measurement": "inhibition at 0.02 µM", "setting": "[3]", "value": "> 60", "unit": "%"}]}]}
